In patent US20030004172A1, “Fused pyrimidinone matrix metalloproteinase inhibitors” (priority 2001, published 2003):

Target: MMP-13CD (catalytic domain of collagenase-3) (Homo sapiens, UniProt P45452)
Assay: Thiopeptolide substrate hydrolysis inhibition assay, MMP-13CD
Assay type: biochemical
Conditions: Table I; thiopeptolide substrate, HEPES pH 7.0, 22° C.; read-out: MMP-13CD IC50
Text: Thiopeptolide substrates show virtually no decomposition or hydrolysis at or below neutral pH in the absence of a matrix metalloproteinase enzyme.

Row | IC50 [nM] | SMILES
1 | 3.4 | COc1cccc(COC(=O)c2cc3c(=O)n(Cc4ccccc4)c(=O)n(C)c3s2)c1 [Example 192, 3-Benzyl-1-methyl-2,4-dioxo-1,2,3,4-tetrahydro-thieno[2,3-d]pyrimidine-6-carboxylic acid 3-methoxy-benzyl ester]
2 | 3.4 | COc1cccc(COC(=O)c2cc3c(=O)n(Cc4ccccc4)c(=O)n(C)c3s2)c1 [Example 193, 3-Benzyl-1-methyl-2,4-dioxo-1,2,3,4-tetrahydro-thieno[2,3-d]pyrimidine-6-carboxylic acid 3-methoxy-benzyl ester]
3 | 88000 | Cn1c(=O)n(Cc2ccccc2)c(=O)c2cc(C(=O)OCCCc3ccccn3)sc21 [Example 194, 3-Benzyl-1-methyl-2,4-dioxo-1,2,3,4-tetrahydro-thieno[2,3-d]pyrimidine-6-carboxylic acid 3-pyridin-2-yl-propyl ester]
4 | > 100000 | Cn1c(=O)n(Cc2ccccc2)c(=O)c2cc(C(=O)OCCC3CCCCN3)sc21 (stereo not drawn) [Example 195, 3-Benzyl-1-methyl-2,4-dioxo-1,2,3,4-tetrahydro-thieno[2,3-d]pyrimidine-6-carboxylic acid 2-piperidin-2-yl-ethyl ester]
5 | 30000 | COc1ccc(Br)cc1COC(=O)c1cc2c(=O)n(Cc3ccccc3)c(=O)n(C)c2s1 [Example 196, 3-Benzyl-1-methyl-2,4-dioxo-1,2,3,4-tetrahydro-thieno[2,3-d]pyrimidine-6-carboxylic acid 5-bromo-2-methoxy-benzyl ester]
6 | > 100000 | Cn1c(=O)n(Cc2ccccc2)c(=O)c2cc(C(=O)OCC3CCCCCC3)sc21 [Example 197, 3-Benzyl-1-methyl-2,4-dioxo-1,2,3,4-tetrahydro-thieno[2,3-d]pyrimidine-6-carboxylic acid cycloheptylmethyl ester]
7 | > 100000 | Cn1c(=O)n(Cc2ccccc2)c(=O)c2cc(C(=O)OC3CCCc4ccccc43)sc21 (stereo not drawn) [Example 198, 3-Benzyl-1-methyl-2,4-dioxo-1,2,3,4-tetrahydro-thieno[2,3-d]pyrimidine-6-carboxylic acid 1,2,3,4-tetrahydro-naphthalen-1-yl ester]
8 | 17000 | Cn1c(=O)n(Cc2ccccc2)c(=O)c2cc(C(=O)OCC3CCCN3)sc21 (stereo not drawn) [Example 199, 3-Benzyl-1-methyl-2,4-dioxo-1,2,3,4-tetrahydro-thieno[2,3-d]pyrimidine-6-carboxylic acid pyrrolidin-2-ylmethyl ester]
9 | 67 | Cn1c(=O)n(Cc2ccccc2)c(=O)c2cc(C(=O)OCc3cccc(Cl)c3)sc21 [Example 200, 3-Benzyl-1-methyl-2,4-dioxo-1,2,3,4-tetrahydro-thieno[2,3-d]pyrimidine-6-carboxylic acid 3-chloro-benzyl ester]
10 | 300 | Cn1c(=O)n(Cc2ccccc2)c(=O)c2cc(C(=O)OCc3ccc4c(c3)OCO4)sc21 [Example 201, 3-Benzyl-1-methyl-2,4-dioxo-1,2,3,4-tetrahydro-thieno[2,3-d]pyrimidine-6-carboxylic acid 1,3-benzodioxol-5-ylmethyl ester]
11 | 360 | CSc1ccc(COC(=O)c2cc3c(=O)n(Cc4ccccc4)c(=O)n(C)c3s2)cc1 [Example 202, 3-Benzyl-1-methyl-2,4-dioxo-1,2,3,4-tetrahydro-thieno[2,3-d]pyrimidine-6-carboxylic acid 4-methylsulfanyl-benzyl ester]
12 | 360 | CSc1ccc(COC(=O)c2cc3c(=O)n(Cc4ccccc4)c(=O)n(C)c3s2)cc1 [Example 203, 3-Benzyl-1-methyl-2,4-dioxo-1,2,3,4-tetrahydro-thieno[2,3-d]pyrimidine-6-carboxylic acid 4-methylsulfanyl-benzyl ester]
13 | 72 | Cn1c(=O)n(Cc2ccccc2)c(=O)c2cc(C(=O)OCc3ccc(Cl)c(Cl)c3)sc21 [Example 204, 3-Benzyl-1-methyl-2,4-dioxo-1,2,3,4-tetrahydro-thieno[2,3-d]pyrimidine-6-carboxylic acid 3,4-dichloro-benzyl ester]
14 | 19000 | Cn1c(=O)n(Cc2ccccc2)c(=O)c2cc(C(=O)OCCC(c3ccccc3)c3ccccc3)sc21 [Example 205, 3-Benzyl-1-methyl-2,4-dioxo-1,2,3,4-tetrahydro-thieno[2,3-d]pyrimidine-6-carboxylic acid 3,3-diphenyl-propyl ester]
15 | 15000 | Cn1c(=O)n(Cc2ccccc2)c(=O)c2cc(C(=O)OCCc3ccccn3)sc21 [Example 206, 3-Benzyl-1-methyl-2,4-dioxo-1,2,3,4-tetrahydro-thieno[2,3-d]pyrimidine-6-carboxylic acid 2-pyridin-2-yl-ethyl ester]
16 | 200 | Cn1c(=O)n(Cc2ccccc2)c(=O)c2cc(C(=O)OCc3ccoc3)sc21 [Example 207, 3-Benzyl-1-methyl-2,4-dioxo-1,2,3,4-tetrahydro-thieno[2,3-d]pyrimidine-6-carboxylic acid furan-3-ylmethyl ester]

Row | IC50 [nM] | SMILES
17 | 100 | C=CCCOC(=O)c1cc2c(=O)n(Cc3ccccc3)c(=O)n(C)c2s1 [Example 208, 3-Benzyl-1-methyl-2,4-dioxo-1,2,3,4-tetrahydro-thieno[2,3-d]pyrimidine-6-carboxylic acid but-3-enyl ester]
18 | > 100000 | Cn1c(=O)n(Cc2ccccc2)c(=O)c2cc(C(=O)OCCC#N)sc21 [Example 209, 3-Benzyl-1-methyl-2,4-dioxo-1,2,3,4-tetrahydro-thieno[2,3-d]pyrimidine-6-carboxylic acid 2-cyano-ethyl ester]
19 | 1200 | CCOCCOC(=O)c1cc2c(=O)n(Cc3ccccc3)c(=O)n(C)c2s1 [Example 210, 3-Benzyl-1-methyl-2,4-dioxo-1,2,3,4-tetrahydro-thieno[2,3-d]pyrimidine-6-carboxylic acid 2-ethoxy-ethyl ester]
20 | 670 | Cn1c(=O)n(Cc2ccccc2)c(=O)c2cc(C(=O)NCc3ccc(C(F)(F)F)cc3)sc21 [Example 212, 3-Benzyl-1-methyl-2,4-dioxo-1,2,3,4-tetrahydro-thieno[2,3-d]pyrimidine-6-carboxylic acid 4-trifluoromethyl-benzylamide]
21 | 1700 | Cc1ccc(CNC(=O)c2cc3c(=O)n(Cc4ccccc4)c(=O)n(C)c3s2)cc1 [Example 213, 3-Benzyl-1-methyl-2,4-dioxo-1,2,3,4-tetrahydro-thieno[2,3-d]pyrimidine-6-carboxylic acid 4-methyl-benzylamide]
22 | 20000 | Cn1c(=O)n(Cc2ccccc2)c(=O)c2cc(C(=O)NCCc3ccccc3)sc21 [Example 214, 3-Benzyl-1-methyl-2,4-dioxo-1,2,3,4-tetrahydro-thieno[2,3-d]pyrimidine-6-carboxylic acid phenethyl-amide]
23 | 24000 | Cn1c(=O)n(Cc2ccccc2)c(=O)c2cc(C(=O)NC3CC3)sc21 [Example 215, 3-Benzyl-1-methyl-2,4-dioxo-1,2,3,4-tetrahydro-thieno[2,3-d]pyrimidine-6-carboxylic acid cyclopropylamide]
24 | 18000 | COc1ccc(CNC(=O)c2cc3c(=O)[nH]c(=O)n(C)c3s2)cc1 [Example 216]
25 | 18000 | COc1cccc(CNC(=O)c2cc3c(=O)[nH]c(=O)n(C)c3s2)c1 [Example 218]
26 | 17000 | COc1cc(CNC(=O)c2cc3c(=O)[nH]c(=O)n(C)c3s2)ccn1 [Example 219, 1-methyl-2,4-dioxo-1,2,3,4-tetrahydro-thieno[2,3-d]pyrimidine-6-carboxylic acid (2-methoxy-pyridin-4-ylmethyl)-amide]
27 | 4.6 | COc1ccc(CNC(=O)c2cc3c(=O)n(Cc4ccc(-c5noc(=O)[nH]5)cc4)c(=O)n(C)c3s2)cc1 [Example 221, 1-Methyl-2,4-dioxo-3-[4-(5-oxo-4,5-dihydro-1,2,4-oxadiazol-3-yl)-benzyl]-1,2,3,4-tetrahydro-thieno[2,3-d]pyrimidine-6-carboxylic acid 4-methoxy-benzylamide]
28 | 4.2 | COc1ccc(CNC(=O)c2cc3c(=O)n(Cc4ccc(-c5noc(=S)[nH]5)cc4)c(=O)n(C)c3s2)cc1 [Example 222, 1-Methyl-2,4-dioxo-3-[4-(5-thioxo-4,5-dihydro-1,2,4-oxadiazol-3-yl)-benzyl]-1,2,3,4-tetrahydro-thieno[2,3-d]pyrimidine-6-carboxylic acid 4-methoxy-benzylamide]
29 | 4900 | COc1ccc(CNC(=O)c2cc3c(=O)n(C/C=C/C(=O)O)c(=O)n(C)c3s2)cc1 [Example 226, (E)-4-[6-(4-Methoxy-benzylcarbamoyl)-1-methyl-2,4-dioxo-1,4-dihydro-2H-thieno[2,3-d]pyrimidin-3-yl]-but-2-enoic acid]
30 | 3800 | COc1ccc(CNC(=O)c2cc3c(=O)n(CCS(=O)(=O)c4ccccc4)c(=O)n(C)c3s2)cc1 [Example 227, 3-(2-Benzenesulfonyl-ethyl)-1-methyl-2,4-dioxo-1,2,3,4-tetrahydro-thieno[2,3-d]pyrimidine-6-carboxylic acid 4-methoxy-benzylamide]
31 | 680 | COCN1C(=O)c2ccc(Cn3c(=O)c4cc(C(=O)NCc5ccc(OC)cc5)sc4n(C)c3=O)cc2S1(=O)=O [Example 229, 3-(2-Methoxymethyl-1,1,3-trioxo-2,3-dihydro-1H-1l^6l-1,2-benzisothiazol-6-ylmethyl)-1-methyl-2,4-dioxo-1,2,3,4-tetrahydro-thieno[2,3-d]pyrimidine-6-carboxylic acid 4-methoxy-benzylamide]
32 | 77 | CCCCCC#CCn1c(=O)c2cc(C(=O)NCc3ccc(OC)cc3)sc2n(C)c1=O [Example 230, 1-Methyl-3-oct-2-ynyl-2,4-dioxo-1,2,3,4-tetrahydro-thieno[2,3-d]pyrimidine-6-carboxylic acid 4-methoxy-benzylamide]

Row | SMILES | IC50 [nM]
33 | Cn1c(=O)n(Cc2ccccc2)c(=O)c2cc(C(=O)OC(C#N)c3ccccc3)sc21 (stereo not drawn) [Example 211, 3-Benzyl-1-methyl-2,4-dioxo-1,2,3,4-tetrahydro-thieno[2,3-d]pyrimidine-6-carboxylic acid cyano-phenyl-methyl ester] | 2100
